IC50 data for 13 molecules are collected here from US12570655B2, “Cysteine covalent modifiers of AKT1 and uses thereof” (Terremoto Biosciences, Inc., priority 2023, dated 2026).

What all share (format): cell-based
Assay [1] deals with LAPC4 prostate cancer cells. The assay is described as follows: Antiproliferative effects in LAPC4 cells (CellTiter Glo). The note with it: LAPC4 cells (AKT1 E17K allele), read-out: LAPC4 proliferation IC50. Summed up:
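LAPC4 prostate cancer cells carrying AKT1 E17K, grown in IMDM with 12% FBS, were seeded at 1,000 cells/well and exposed to compound dilutions for 72 h. Viability was read as intracellular ATP by CellTiter Glo luminescence, and IC50 was fitted with a log(inhibitor) vs. response Hill equation.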

Another assay addresses T1, AKT2 (Homo sapiens, UniProt P31751).
T1 construct: expressed in transfected cells; host or cells: HEK293
In words: Live cell AKT2 target engagement by NanoBRET competitive probe displacement. The note with it: HEK293 cells transfected with kinase-NanoLuciferase fusion, 2 h at 37° C. Put shortly: (§1)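 HEK293 cells transiently expressing kinase–NanoLuc fusions overnight; treated with serial compound dilutions plus fluorescent ATP-competitive tracer at ~EC50, 2 h at 37 °C. BRET ratio E600/E460 read after substrate and extracellular luciferase inhibitor; IC50 from log(inhibitor) vs response Hill fit.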

The target in the next assay is T2, AKT1 WT (Homo sapiens, UniProt P31749).
T2 construct: expressed in transfected cells; host or cells: HEK293
T2 sequence (P31749 whole entry): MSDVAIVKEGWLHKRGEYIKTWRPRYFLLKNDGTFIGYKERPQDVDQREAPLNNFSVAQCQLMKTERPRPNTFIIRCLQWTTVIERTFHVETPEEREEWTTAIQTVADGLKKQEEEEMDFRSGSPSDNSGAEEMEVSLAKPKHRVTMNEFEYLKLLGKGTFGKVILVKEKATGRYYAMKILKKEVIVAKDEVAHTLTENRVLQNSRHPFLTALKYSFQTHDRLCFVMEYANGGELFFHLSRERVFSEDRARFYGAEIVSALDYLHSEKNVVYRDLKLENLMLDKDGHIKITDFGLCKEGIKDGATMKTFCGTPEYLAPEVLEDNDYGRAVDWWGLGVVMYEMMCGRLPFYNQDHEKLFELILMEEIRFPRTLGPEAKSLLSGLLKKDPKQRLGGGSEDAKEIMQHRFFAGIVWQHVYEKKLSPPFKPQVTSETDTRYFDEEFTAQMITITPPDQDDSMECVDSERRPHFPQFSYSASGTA
In words: Live cell AKT1 WT target engagement by NanoBRET competitive probe displacement. The note with it: HEK293 cells transfected with kinase-NanoLuciferase fusion, 2 h at 37° C. Summed up: as §1

The target of the next assay is T3, AKT1 E17K (Homo sapiens, UniProt P31749, E17K).
T3 construct: expressed in transfected cells; host or cells: HEK293
T3 sequence (P31749 whole entry E17K): as the sequence (P31749 whole entry) above, with E17K counted along it
The assay is described as follows: Live cell AKT1 E17K target engagement by NanoBRET competitive probe displacement. The note with it: HEK293 cells transfected with kinase-NanoLuciferase fusion, 2 h at 37° C. Put shortly: as §1

Like-named read-outs stand apart in the source and are kept apart here.

T1 sequence (P31751 whole entry): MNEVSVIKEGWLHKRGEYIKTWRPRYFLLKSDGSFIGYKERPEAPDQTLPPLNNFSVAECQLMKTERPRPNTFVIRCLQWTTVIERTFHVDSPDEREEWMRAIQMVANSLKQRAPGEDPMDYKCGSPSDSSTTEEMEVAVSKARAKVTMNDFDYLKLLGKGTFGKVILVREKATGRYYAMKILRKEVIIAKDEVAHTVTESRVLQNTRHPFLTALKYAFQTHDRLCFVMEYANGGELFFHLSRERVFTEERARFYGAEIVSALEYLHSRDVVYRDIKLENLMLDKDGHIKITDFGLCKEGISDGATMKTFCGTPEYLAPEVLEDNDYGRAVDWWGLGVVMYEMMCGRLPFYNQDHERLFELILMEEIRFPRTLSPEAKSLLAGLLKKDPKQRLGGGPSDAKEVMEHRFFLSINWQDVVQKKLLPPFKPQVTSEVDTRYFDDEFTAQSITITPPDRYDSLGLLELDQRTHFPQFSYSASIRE

In the case of `C=CC(=O)N1CCC(N(C)[C@H]2CCc3cc(-n4c(-c5cccnc5N)nc5ccc(-n6cccn6)nc54)ccc32)CC1` [Example 67, (S)-1-(4-((5-(2-(2-aminopyridin-3-yl)-5-(1H-pyrazol-1-yl)-3H-imidazo[4,5-b]pyridin-3-yl)-2,3-dihydro-1H-inden-1-yl)(methyl)amino)piperidin-1-yl)prop-2-en-1-one], the IC50 was determined as 287 nM in assay [1] (Homo sapiens, LAPC4, 72 h); 107 nM on AKT2; 21.8 nM at AKT1 WT; 87.9 nM at AKT1 E17K.

With `C=CC(=O)N1CCC12CCC(N[C@H]1CCc3cc(-n4c(-c5cccnc5N)nc5ccc(-n6cccn6)nc54)ccc31)CC2` (stereo partly drawn) [Example 80, 1-(7-{[(1S)-5-[2-(2-aminopyridin-3-yl)-5-(pyrazol-1-yl)imidazo[4,5-b]pyridin-3-yl]-2,3-dihydro-1H-inden-1-yl]amino}-1-azaspiro[3.5]nonan-1-yl)prop-2-en-1-one], the IC50 stood at 120 nM in assay [1] (Homo sapiens, LAPC4, 72 h); 166 nM on AKT2; 15.7 nM on AKT1 WT; 41.7 nM at AKT1 E17K.

Regarding `C=CC(=O)N1CCC(N[C@H]2CCc3cc(-n4c(-c5cccnc5N)nc5ccc(-n6cccn6)nc54)ccc32)C(F)(F)C1` (single isomer, unassigned) [Example 56, 1-((*)-4-(((S)-5-(2-(2-aminopyridin-3-yl)-5-(1H-pyrazol-1-yl)-3H-imidazo[4,5-b]pyridin-3-yl)-2,3-dihydro-1H-inden-1-yl)amino)-3,3-difluoropiperidin-1-yl)prop-2-en-1-one], the IC50 in assay [1] (72 h) was 144 nM; at AKT2 it was 104 nM; at AKT1 WT, 6.71 nM; on AKT1 E17K, 23.9 nM.

Take `C=CC(=O)N1CCC(N[C@@H]2c3ccc(-n4c(-c5cccnc5N)nc5ccc(-n6ccc(C7CC7)n6)nc54)cc3CC2F)CC1` (single isomer, unassigned) [Example 297, 1-(4-(((1R,2*)-5-(2-(2-aminopyridin-3-yl)-5-(3-cyclopropyl-1H-pyrazol-1-yl)-3H-imidazo[4,5-b]pyridin-3-yl)-2-fluoro-2,3-dihydro-1H-inden-1-yl)amino)piperidin-1-yl)prop-2-en-1-one]: the IC50 came to 509 nM in assay [1] (Homo sapiens, LAPC4, 72 h); 108 nM on AKT2; 588 nM on AKT1 WT; 23.8 nM at AKT1 E17K.

In the case of `C=CC(=O)N1CCC(N[C@H]2CCc3cc(-n4c(-c5cccnc5N)nc5ccc(-n6cccn6)nc54)ccc3C2)CC1` [Example 296, 1-(4-{[(2S)-6-[2-(2-aminopyridin-3-yl)-5-(pyrazol-1-yl)imidazo[4,5-b]pyridin-3-yl]-1,2,3,4-tetrahydronaphthalen-2-yl]amino}piperidin-1-yl)prop-2-en-1-one], the IC50 in assay [1] (Homo sapiens, LAPC4, 72 h) worked out at 59.1 nM; on AKT2, 36.6 nM; on AKT1 WT it was 93.4 nM; at AKT1 E17K, 33.2 nM.

For `C=CC(=O)N1CCC(N[C@@H]2c3ccc(-n4c(-c5cccnc5N)nc5ccc(-n6cccn6)nc54)cc3CC2F)CC1C(F)F` (single isomer, unassigned) [Example 304, 1-((2*,4*)-4-(((1R,2*)-5-(2-(2-aminopyridin-3-yl)-5-(1H-pyrazol-1-yl)-3H-imidazo[4,5-b]pyridin-3-yl)-2-fluoro-2,3-dihydro-1H-inden-1-yl)amino)-2-(difluoromethyl)piperidin-1-yl)prop-2-en-1-one], the IC50 in assay [1] (72 h) is 641 nM; at AKT2 it was 36.2 nM; on AKT1 WT, 264 nM; on AKT1 E17K, 11.6 nM.

In the case of `C=CC(=O)N1CCC(N[C@H]2CCc3cc(-n4c(-c5cccnc5N)nc5ccc(N6CC[C@@H](F)C6)nc54)ccc32)CC1` [Example 194, 1-(4-{[(1S)-5-[2-(2-aminopyridin-3-yl)-5-[(3R)-3-fluoropyrrolidin-1-yl]imidazo[4,5-b]pyridin-3-yl]-2,3-dihydro-1H-inden-1-yl]amino}piperidin-1-yl)prop-2-en-1-one], the IC50 turned out to be 310 nM in assay [1] (Homo sapiens, LAPC4, 72 h); 142 nM on AKT2; 446 nM at AKT1 WT; 13.8 nM at AKT1 E17K.

As for `C=CC(=O)N1CC2(CCCC(N[C@H]3CCc4cc(-n5c(-c6cccnc6N)nc6ccc(-n7cccn7)nc65)ccc43)C2)C1` (single isomer, unassigned) [Example 78, 1-((*)-6-(((S)-5-(2-(2-aminopyridin-3-yl)-5-(1H-pyrazol-1-yl)-3H-imidazo[4,5-b]pyridin-3-yl)-2,3-dihydro-1H-inden-1-yl)amino)-2-azaspiro[3.5]nonan-2-yl)prop-2-en-1-one], the IC50 in assay [1] (Homo sapiens, LAPC4, 72 h) stood at 212 nM; on AKT2, 136 nM; on AKT1 WT it was 22 nM; at AKT1 E17K, 63 nM.

As to `C=CC(=O)N1CCC(N[C@H]2CCc3cc(-n4c(-c5cccnc5N)nc5ccc(-n6cccn6)nc54)ccc32)C(C#N)C1` (stereo partly drawn) [Example 157, (3*,4*)-1-acryloyl-4-(((S)-5-(2-(2-aminopyridin-3-yl)-5-(1H-pyrazol-1-yl)-3H-imidazo[4,5-b]pyridin-3-yl)-2,3-dihydro-1H-inden-1-yl)amino)piperidine-3-carbonitrile], the IC50 in assay [1] (Homo sapiens, LAPC4, 72 h) was 110 nM; at AKT2 it was 216 nM; at AKT1 WT, 17.2 nM; on AKT1 E17K, 54.5 nM.

As to `C=CC(=O)N1CCC(N[C@H]2CCc3cc(-n4c(-c5cccnc5N)nc5ccc(-n6ccc(C7CCCC7)n6)nc54)ccc32)CC1` [Example 306, 1-(4-{[(1S)-5-[2-(2-aminopyridin-3-yl)-5-(3-cyclopentylpyrazol-1-yl)imidazo[4,5-b]pyridin-3-yl]-2,3-dihydro-1H-inden-1-yl]amino}piperidin-1-yl)prop-2-en-1-one], the IC50 stood at 203 nM in assay [1] (Homo sapiens, LAPC4, 72 h); 72.3 nM on AKT2; 186 nM at AKT1 WT; 15.7 nM at AKT1 E17K.

Turning to `C=CC(=O)N1CCC(N[C@H]2CCc3cc(-n4c(-c5cccnc5N)nc5ccc(-n6ccc(C7CCOCC7)n6)nc54)ccc32)CC1` [Example 321, 1-(4-{[(1S)-5-[2-(2-aminopyridin-3-yl)-5-[3-(oxan-4-yl)pyrazol-1-yl]imidazo[4,5-b]pyridin-3-yl]-2,3-dihydro-1H-inden-1-yl]amino}piperidin-1-yl)prop-2-en-1-one], the IC50 came to 80.7 nM in assay [1] (Homo sapiens, LAPC4, 72 h); 24.2 nM at AKT2; 158 nM on AKT1 WT; 7.19 nM at AKT1 E17K.

Take `C=CC(=O)N1CCC[C@@H]1C(=O)N[C@H]1CCc2cc(-n3c(-c4cccnc4N)nc4ccc(-n5cccn5)nc43)ccc21` [Example 25]: the IC50 was greater than 10000 nM in assay [1] (Homo sapiens, LAPC4, 72 h); greater than 10000 nM on AKT2; greater than 1000 nM on AKT1 WT; greater than 1000 nM at AKT1 E17K.

Regarding `C=CC(=O)N1C[C@H]2C[C@@H](C1)C2N[C@H]1CCc2cc(-n3c(-c4cccnc4N)nc4ccc(-n5cccn5)nc43)ccc21` (single isomer, unassigned) [Example 59, 1-((1R,5S,6*)-6-(((S)-5-(2-(2-aminopyridin-3-yl)-5-(1H-pyrazol-1-yl)-3H-imidazo[4,5-b]pyridin-3-yl)-2,3-dihydro-1H-inden-1-yl)amino)-3-azabicyclo[3.1.1]heptan-3-yl)prop-2-en-1-one], the IC50 in assay [1] (72 h) turned out to be 377 nM; at AKT2, 648 nM; at AKT1 WT it was 44.8 nM; on AKT1 E17K, 242 nM.
